Laboratory results: the supplement of paper PMC5908809

Legend:
[1] = test system: normal NK cells expanded with K562-aAPC; test: percent inhibition of viability; higher = more inhibition; details: 72 h, IL-2 2.5 ng/mL
Method: (§1)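 Drug sensitivity and resistance testing on K562-aAPC-expanded normal NK cells: 5 concentrations (10-fold steps over a 10,000-fold range), 72 h at 37 °C, viability by CellTiter-Glo normalised to DMSO and benzethonium chloride controls; DSS from the fitted curve.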

DERL-7 (IL-2 2.5 ng/mL) [2] = test: drug sensitivity score (DSS) (DSS units); higher = more sensitive; extreme values may be limits of the assay; details: 72 h
NK-YS (IL-2 2.5 ng/mL) [3] = test: as above; details: 72 h
[4] = test system: normal primary NK cells, pool 1 (3 donors), resting (IL-2 0 ng/mL); test: as above; details: 72 h
[5] = test system: normal primary NK cells, pool 1 (3 donors) (IL-2 2.5 ng/mL); test: as above; details: 72 h
KHYG-1 (IL-2 2.5 ng/mL) [6] = test: as above; details: 72 h
IMC-1 (IL-2 20 ng/mL) [7] = test: as above; details: 72 h
YT (IL-2 2.5 ng/mL) [8] = test: as above; details: 72 h
[9] = test system: normal primary NK cells, pool 2 (3 donors) (IL-2 2.5 ng/mL); test: as above; details: 72 h
NK-92 (IL-2 2.5 ng/mL) [10] = test: as above; details: 72 h
KAI3 (IL-2 2.5 ng/mL) [11] = test: as above; details: 72 h
NKL (IL-2 2.5 ng/mL) [12] = test: as above; details: 72 h
[13] = test system: normal primary NK cells, pool 3 (3 donors) (IL-2 2.5 ng/mL); test: as above; details: 72 h
SNK-6 (IL-2 2.5 ng/mL) [14] = test: as above; details: 72 h
[15] = test system: normal NK cells expanded with K562-aAPC; test: as above; details: 72 h; IL-2 2.5 ng/mL
Method: as §1

DERL-7 (IL-2 2.5 ng/mL) [16] = test: percent inhibition of viability; higher = more inhibition; details: 72 h
NK-YS (IL-2 2.5 ng/mL) [17] = test: as above; details: 72 h
[18] = test system: normal primary NK cells, pool 1 (3 donors), resting (IL-2 0 ng/mL); test: as above; details: 72 h
[19] = test system: normal primary NK cells, pool 1 (3 donors) (IL-2 2.5 ng/mL); test: as above; details: 72 h
KHYG-1 (IL-2 2.5 ng/mL) [20] = test: as above; details: 72 h
IMC-1 (IL-2 20 ng/mL) [21] = test: as above; details: 72 h
YT (IL-2 2.5 ng/mL) [22] = test: as above; details: 72 h
[23] = test system: normal primary NK cells, pool 2 (3 donors) (IL-2 2.5 ng/mL); test: as above; details: 72 h
NK-92 (IL-2 2.5 ng/mL) [24] = test: as above; details: 72 h
KAI3 (IL-2 2.5 ng/mL) [25] = test: as above; details: 72 h
NKL (IL-2 2.5 ng/mL) [26] = test: as above; details: 72 h
[27] = test system: normal primary NK cells, pool 3 (3 donors) (IL-2 2.5 ng/mL); test: as above; details: 72 h
SNK-6 (IL-2 2.5 ng/mL) [28] = test: as above; details: 72 h

COC(=O)N[C@@H](C)CNc1nccc(-c2cn(C(C)C)nc2-c2cc(Cl)cc(NS(C)(=O)=O)c2F)n1 [Encorafenib] (max concentration tested 1000 nM)
percent inhibition of viability [%]
Details | 0.1 nM | 1 nM | 10 nM | 100 nM | 1000 nM
DERL-7 (IL-2 2.5 ng/mL) [16] | -4.45 | 1.39 | -5.31 | -20.4 | 2.89
IMC-1 (IL-2 20 ng/mL) [21] | -3.38 | -1.85 | -0.96 | 1.07 | 11.3
KAI3 (IL-2 2.5 ng/mL) [25] | -3.35 | -4.73 | -1.44 | -5.19 | 35.6
KHYG-1 (IL-2 2.5 ng/mL) [20] | 1.4 | 3.41 | 40.8 | 96.3 | 36
NK-92 (IL-2 2.5 ng/mL) [24] | 3.73 | -5.79 | 17.9 | 6.05 | 10.7
NK-YS (IL-2 2.5 ng/mL) [17] | 0.75 | 0.97 | 2.64 | 4.64 | 15.7
NKL (IL-2 2.5 ng/mL) [26] | -6.88 | -1.53 | -12.4 | -13 | 2.6
SNK-6 (IL-2 2.5 ng/mL) [28] | -4.51 | -10 | 13.8 | 2.67 | 3.42
YT (IL-2 2.5 ng/mL) [22] | 4.02 | 1.12 | 4.21 | 0.09 | 19.3
[1] | -0.52 | -2.88 | -3.45 | 0.31 | 8.45
[18] | 6.42 | -18.3 | -10.7 | -27.7 | 1.26
[19] | -4.01 | -8.97 | -7.94 | -18.4 | -8.33
[23] | -12.3 | -6.1 | -1.97 | -5.14 | -1.61
[27] | -8.13 | -6.38 | -2.7 | -12.9 | -4.56

Details | drug sensitivity score
DERL-7 (IL-2 2.5 ng/mL) [2] | 0
IMC-1 (IL-2 20 ng/mL) [7] | 0.04
KAI3 (IL-2 2.5 ng/mL) [11] | 1.37
KHYG-1 (IL-2 2.5 ng/mL) [6] | 16.3
NK-92 (IL-2 2.5 ng/mL) [10] | 0.17
NK-YS (IL-2 2.5 ng/mL) [3] | 0.52
NKL (IL-2 2.5 ng/mL) [12] | 0
SNK-6 (IL-2 2.5 ng/mL) [14] | 0
YT (IL-2 2.5 ng/mL) [8] | 0.55
[4] | 0
[5] | 0
[9] | 0
[13] | 0
[15] | 0

CCn1c(C(=O)N(C2CC2)C2CC2)cc2c3c(ncn3C)c(Nc3cc(C)n(C)n3)nc21 (max concentration tested 10000 nM)
percent inhibition of viability [%]
Details | 1 nM | 10 nM | 100 nM | 1000 nM | 10000 nM
DERL-7 (IL-2 2.5 ng/mL) [16] | 0.43 | 0.75 | 1.97 | 12.3 | 54.1
IMC-1 (IL-2 20 ng/mL) [21] | -1.17 | 2.69 | 0.12 | -11.6 | -7.89
KAI3 (IL-2 2.5 ng/mL) [25] | 14.1 | 21.2 | 27.8 | 44.8 | 76.3
KHYG-1 (IL-2 2.5 ng/mL) [20] | 4.48 | 5.02 | 4.17 | 12.6 | 69.7
NK-92 (IL-2 2.5 ng/mL) [24] | 4.07 | 7.86 | -2 | 9.2 | 60.7
NK-YS (IL-2 2.5 ng/mL) [17] | 4.8 | 6.33 | 4.46 | 16.1 | 36.6
NKL (IL-2 2.5 ng/mL) [26] | 0.96 | -1.04 | 3.26 | 41.2 | 70.4
SNK-6 (IL-2 2.5 ng/mL) [28] | -4.81 | 22.8 | -3.45 | -16.6 | 7.74
YT (IL-2 2.5 ng/mL) [22] | 9.25 | 9.54 | 7.25 | 14.5 | 46.5
[1] | 5.29 | 4.9 | 4.54 | 16 | 63.8
[18] | -6.63 | -4.84 | -10.8 | 4.13 | 5.86
[19] | -3.85 | -1.69 | -6.9 | 11.7 | 41.6
[23] | -2.38 | -1.43 | 0.57 | 3.6 | 49
[27] | 5.51 | -1.86 | 3.33 | 6.54 | 30.7

Details | drug sensitivity score
DERL-7 (IL-2 2.5 ng/mL) [2] | 4.87
IMC-1 (IL-2 20 ng/mL) [7] | 0
KAI3 (IL-2 2.5 ng/mL) [11] | 14.5
KHYG-1 (IL-2 2.5 ng/mL) [6] | 5.93
NK-92 (IL-2 2.5 ng/mL) [10] | 4.85
NK-YS (IL-2 2.5 ng/mL) [3] | 3.29
NKL (IL-2 2.5 ng/mL) [12] | 8.84
SNK-6 (IL-2 2.5 ng/mL) [14] | 0
YT (IL-2 2.5 ng/mL) [8] | 4.02
[4] | 0
[5] | 3.85
[9] | 3.12
[13] | 2.38
[15] | 5.99

CC1(C)CCC(c2ccc(Cl)cc2)=C(CN2CCN(c3ccc(C(=O)NS(=O)(=O)c4ccc(N[C@H](CCN5CCOCC5)CSc5ccccc5)c(S(=O)(=O)C(F)(F)F)c4)cc3)CC2)C1 [Navitoclax] (max concentration tested 10000 nM)
percent inhibition of viability [%]
Details | 1 nM | 10 nM | 100 nM | 1000 nM | 10000 nM
DERL-7 (IL-2 2.5 ng/mL) [16] | 2 | 1.88 | 47.8 | 93 | 100
IMC-1 (IL-2 20 ng/mL) [21] | -6.88 | -0.75 | 19.6 | 38.7 | 79.4
KAI3 (IL-2 2.5 ng/mL) [25] | 19.6 | 80.7 | 102 | 104 | 97.4
KHYG-1 (IL-2 2.5 ng/mL) [20] | -3.19 | -1.54 | 72.7 | 102 | 96.3
NK-92 (IL-2 2.5 ng/mL) [24] | -0.38 | -1.7 | 27 | 83.7 | 95.2
NK-YS (IL-2 2.5 ng/mL) [17] | 0.62 | 12 | 56.3 | 99.3 | 96.6
NKL (IL-2 2.5 ng/mL) [26] | -5.66 | 12.4 | 83.2 | 101 | 97.8
SNK-6 (IL-2 2.5 ng/mL) [28] | 16.9 | 69.7 | 99 | 99.5 | 98.8
YT (IL-2 2.5 ng/mL) [22] | 2.71 | 25.2 | 69.4 | 77.4 | 87.6
[1] | -0.31 | -4.48 | 10.3 | 55 | 77
[18] | 2.54 | 48 | 98.3 | 100 | 99.9
[19] | -16.8 | -9.66 | 60 | 94 | 99.9
[23] | -16.4 | 3.46 | 56.9 | 95.9 | 99
[27] | -14.4 | -12.2 | 24.6 | 87.2 | 95.9

Details | drug sensitivity score
DERL-7 (IL-2 2.5 ng/mL) [2] | 23
IMC-1 (IL-2 20 ng/mL) [7] | 9.91
KAI3 (IL-2 2.5 ng/mL) [11] | 42.1
KHYG-1 (IL-2 2.5 ng/mL) [6] | 26.3
NK-92 (IL-2 2.5 ng/mL) [10] | 18.6
NK-YS (IL-2 2.5 ng/mL) [3] | 24.8
NKL (IL-2 2.5 ng/mL) [12] | 29.4
SNK-6 (IL-2 2.5 ng/mL) [14] | 39.8
YT (IL-2 2.5 ng/mL) [8] | 26.4
[4] | 36.1
[5] | 25.1
[9] | 24.6
[13] | 19.2
[15] | 11.7

O=C(Nc1cc(Cl)cc2c1[nH]c1cnccc12)c1cccnc1 [PS-1145] (max concentration tested 25000 nM)
percent inhibition of viability [%]
Details | 2.5 nM | 25 nM | 250 nM | 2500 nM | 25000 nM
DERL-7 (IL-2 2.5 ng/mL) [16] | -3.2 | -13 | 1.95 | -4.1 | -8.03
IMC-1 (IL-2 20 ng/mL) [21] | -6.22 | -1.55 | 3.4 | 7.36 | 16
KAI3 (IL-2 2.5 ng/mL) [25] | 5.94 | 6.21 | 4.4 | 48.5 | 75
KHYG-1 (IL-2 2.5 ng/mL) [20] | 5.69 | 5.58 | 12.9 | 7.66 | 16.4
NK-92 (IL-2 2.5 ng/mL) [24] | -0.17 | -20.2 | -5.95 | 4.6 | 23.6
NK-YS (IL-2 2.5 ng/mL) [17] | 0.26 | 0.9 | 2.11 | 7.41 | 11.3
NKL (IL-2 2.5 ng/mL) [26] | 12.7 | 11.1 | 10.4 | 9.5 | 20.8
SNK-6 (IL-2 2.5 ng/mL) [28] | -11.2 | 3.19 | -6.13 | 14.1 | 16.6
YT (IL-2 2.5 ng/mL) [22] | 3.94 | 1.19 | 1.07 | 4.91 | 13.9
[1] | 2.02 | 0.77 | -1.48 | -6.16 | 6.75
[18] | -26.1 | -30.6 | 0.68 | -5.12 | -6.42
[19] | 5.83 | -8.31 | 15.4 | 7.93 | 11.5
[23] | -19.7 | -10.7 | 3.18 | 6.82 | 10.1
[27] | -2.28 | -6.49 | 7.93 | 14.6 | 10.4

Details | drug sensitivity score
DERL-7 (IL-2 2.5 ng/mL) [2] | 0
IMC-1 (IL-2 20 ng/mL) [7] | 0.51
KAI3 (IL-2 2.5 ng/mL) [11] | 10.1
KHYG-1 (IL-2 2.5 ng/mL) [6] | 0.87
NK-92 (IL-2 2.5 ng/mL) [10] | 1.52
NK-YS (IL-2 2.5 ng/mL) [3] | 0.04
NKL (IL-2 2.5 ng/mL) [12] | 0
SNK-6 (IL-2 2.5 ng/mL) [14] | 1.45
YT (IL-2 2.5 ng/mL) [8] | 0.38
[4] | 0
[5] | 0.64
[9] | 0
[13] | 1.86
[15] | 0
